Literature values as cited in patent publication US20100092398A1, “ANTIMICROBIAL COMPOSITIONS AND APPLICATIONS THEREFORE” (priority 2004, published 2010).

Conditions: range given for terpinen-4-ol

CC1=CCC(O)(C(C)C)CC1 (stereo not shown) [terpinen-4-ol]
Relative density @ 20° C.: 0.930 to 0.936 g/mL
